The conditions of the series: Crystal; visual observation.

± gives the expanded uncertainty stated by the source.

Here are results for one compound from the NIST ThermoML archive (doi:10.1021/je800945e).

`Nc1cccnc1` [β-aminopyridine]: the Normal melting temperature was determined as 64.50 ± 0.5 °C.
